biological target: Coagulation factor XII (Homo sapiens) (UniProt P00748); test: human FXIIa protease inhibitors, dose response, biochemical, confirmation of 1536-well hits (AID 852); settings: purified human plasma FXIIa, fluorogenic AMC substrate, 384-well, 2 h
Sequence (P00748 20-372 limits assumed): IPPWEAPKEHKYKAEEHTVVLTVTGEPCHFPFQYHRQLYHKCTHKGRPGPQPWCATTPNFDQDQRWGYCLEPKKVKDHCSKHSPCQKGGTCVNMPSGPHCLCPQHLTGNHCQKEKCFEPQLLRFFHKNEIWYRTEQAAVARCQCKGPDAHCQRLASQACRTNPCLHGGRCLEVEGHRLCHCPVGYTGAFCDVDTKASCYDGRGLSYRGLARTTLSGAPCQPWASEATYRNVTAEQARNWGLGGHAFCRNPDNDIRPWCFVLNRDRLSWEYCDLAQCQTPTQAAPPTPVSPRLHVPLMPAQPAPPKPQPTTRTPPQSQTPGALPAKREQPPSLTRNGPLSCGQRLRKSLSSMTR
Sequence (P00748 373-615 limits assumed): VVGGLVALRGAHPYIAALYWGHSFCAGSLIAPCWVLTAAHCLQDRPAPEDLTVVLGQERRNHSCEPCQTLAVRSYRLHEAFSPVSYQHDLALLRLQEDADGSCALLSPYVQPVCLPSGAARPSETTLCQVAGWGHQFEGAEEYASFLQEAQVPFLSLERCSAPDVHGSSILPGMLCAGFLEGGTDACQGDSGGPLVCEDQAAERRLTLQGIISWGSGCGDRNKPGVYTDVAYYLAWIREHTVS

Row | IC50 [µM] | SMILES
1 | 21.6 | O=C(Oc1ccc(Cl)c2cccnc12)c1ccco1
2 | 0.796 | Cc1ccc(C(=O)n2nc(-c3cccnc3)nc2N)cc1
3 | 6.22 | O=C(Oc1ccc2c3c(c(=O)oc2c1)CCC3)c1ccco1
